Laboratory results published in ChEMBL document CHEMBL5303573, “Mapping human microbiome drug metabolism by gut bacteria and their genes” (Nature, 2019).

How the values were obtained:
[1] = bacteroides thetaiotaomicron, 12 h, 2 µM
Description: The drug is tested on Bacteroides thetaiotaomicron strain: 3731 for biotransformation. The drug concentrations were measured before and after a 12-h incubation by liquid-chromatography-coupled mass spectrometry (LC–MS)

[2] = The drug is tested on Ruminococcus gnavus strain: ATCC29149 for biotransformation. The drug concentrations were measured before and after a 12-h incubation by liquid-chromatography-coupled mass spectrometry (LC–MS); settings: mediterraneibacter gnavus, 2 µM
[3] = The drug is tested on Edwardsiella tarda strain: ATCC23685 for biotransformation. The drug concentrations were measured before and after a 12-h incubation by liquid-chromatography-coupled mass spectrometry (LC–MS); settings: 2 µM
[4] = The drug is tested on Bacteroides pectinophilus strain: ATCC43243 for biotransformation. The drug concentrations were measured before and after a 12-h incubation by liquid-chromatography-coupled mass spectrometry (LC–MS); settings: 2 µM
[5] = The drug is tested on Bacteroides sp. WH2 strain: WH2 for biotransformation. The drug concentrations were measured before and after a 12-h incubation by liquid-chromatography-coupled mass spectrometry (LC–MS); settings: bacteroides sp. wh2, 12 h, 2 µM
[6] = bacteroides intestinalis, 12 h, 2 µM
Description: The drug is tested on Bacteroides intestinalis strain: DSM17393 for biotransformation. The drug concentrations were measured before and after a 12-h incubation by liquid-chromatography-coupled mass spectrometry (LC–MS)

[7] = The drug is tested on Bifidobacterium longum subsp. Infantis strain: CCUG52486 for biotransformation. The drug concentrations were measured before and after a 12-h incubation by liquid-chromatography-coupled mass spectrometry (LC–MS); settings: 2 µM
[8] = bacteroides fragilis, 12 h, 2 µM
Description: The drug is tested on Bacteroides fragilis strain: 3397 (T10) for biotransformation. The drug concentrations were measured before and after a 12-h incubation by liquid-chromatography-coupled mass spectrometry (LC–MS)

[9] = The drug is tested on Blautia hansenii strain: DSM20583 for biotransformation. The drug concentrations were measured before and after a 12-h incubation by liquid-chromatography-coupled mass spectrometry (LC–MS); settings: 2 µM
[10] = The drug is tested on Providencia stuartii strain: ATCC25827 for biotransformation. The drug concentrations were measured before and after a 12-h incubation by liquid-chromatography-coupled mass spectrometry (LC–MS); settings: 2 µM
[11] = The drug is tested on Clostridium symbiosum strain: ATCC14940 for biotransformation. The drug concentrations were measured before and after a 12-h incubation by liquid-chromatography-coupled mass spectrometry (LC–MS); settings: 2 µM
[12] = The drug is tested on Eubacterium ventriosum strain: ATCC27560 for biotransformation. The drug concentrations were measured before and after a 12-h incubation by liquid-chromatography-coupled mass spectrometry (LC–MS); type: ADME; parameters: dose 2 uM, timepoint 0 vs 12 hours; settings: 2 µM
[13] = The drug is tested on Bacteroides xylanisolvens strain: DSM18836 for biotransformation. The drug concentrations were measured before and after a 12-h incubation by liquid-chromatography-coupled mass spectrometry (LC–MS); settings: 2 µM
[14] = enterocloster bolteae, 12 h, 2 µM
Description: The drug is tested on Clostridium bolteae strain: ATCCBAA-613 for biotransformation. The drug concentrations were measured before and after a 12-h incubation by liquid-chromatography-coupled mass spectrometry (LC–MS)

[15] = The drug is tested on Eubacterium hallii strain: DSM3353 for biotransformation. The drug concentrations were measured before and after a 12-h incubation by liquid-chromatography-coupled mass spectrometry (LC–MS); settings: anaerobutyricum hallii, 2 µM
[16] = The drug is tested on Bacteroides fragilis strain: ATCC43859 for biotransformation. The drug concentrations were measured before and after a 12-h incubation by liquid-chromatography-coupled mass spectrometry (LC–MS); settings: 2 µM
[17] = The drug is tested on Bifidobacterium breve strain: DSM20213 for biotransformation. The drug concentrations were measured before and after a 12-h incubation by liquid-chromatography-coupled mass spectrometry (LC–MS); settings: 2 µM
[18] = bacteroides fragilis, 12 h, 2 µM; remark: listed apart in the source
Description: The drug is tested on Bacteroides fragilis strain: NCTC 9343 for biotransformation. The drug concentrations were measured before and after a 12-h incubation by liquid-chromatography-coupled mass spectrometry (LC–MS)

[19] = bifidobacterium adolescentis, 12 h, 2 µM
Description: The drug is tested on Bifidobacterium adolescentis strain: ATCC 15703 for biotransformation. The drug concentrations were measured before and after a 12-h incubation by liquid-chromatography-coupled mass spectrometry (LC–MS)

[20] = The drug is tested on Collinsella intestinalis strain: DSM13280 for biotransformation. The drug concentrations were measured before and after a 12-h incubation by liquid-chromatography-coupled mass spectrometry (LC–MS); settings: 2 µM

Row | SMILES | Bacterial Biotransformation [1] | Bacterial Biotransformation [2] | Bacterial Biotransformation [3] | Bacterial Biotransformation [4] | Bacterial Biotransformation [5] | Bacterial Biotransformation [6] | Bacterial Biotransformation [7] | Bacterial Biotransformation [8] | Bacterial Biotransformation [9] | Bacterial Biotransformation [10] | Bacterial Biotransformation [11] | Bacterial Biotransformation [12] | Bacterial Biotransformation [13] | Bacterial Biotransformation [14] | Bacterial Biotransformation [15] | Bacterial Biotransformation [16] | Bacterial Biotransformation [17] | Bacterial Biotransformation [18] | Bacterial Biotransformation [19] | Bacterial Biotransformation [20]
1 | CC(N)C12CC3CC(CC(C3)C1)C2 (stereo not given) [RIMANTADINE] | Compound NOT metabolized | Compound NOT metabolized | Compound NOT metabolized | Compound NOT metabolized | Compound NOT metabolized | Compound NOT metabolized | Compound NOT metabolized | Compound NOT metabolized | Compound NOT metabolized | Compound NOT metabolized | Compound NOT metabolized | Compound NOT metabolized | Compound NOT metabolized | Compound NOT metabolized | Compound NOT metabolized | Compound NOT metabolized | Compound NOT metabolized | Compound NOT metabolized | Compound NOT metabolized | Compound NOT metabolized
2 | C=CC[C@@H]1/C=C(\C)C[C@H](C)C[C@H](OC)[C@H]2O[C@@](O)(C(=O)C(=O)N3CCCC[C@H]3C(=O)O[C@H](/C(C)=C/[C@@H]3CC[C@@H](O)[C@H](OC)C3)[C@H](C)[C@@H](O)CC1=O)[C@H](C)C[C@@H]2OC.O [TACROLIMUS] | Compound NOT metabolized | Compound metabolized | Compound NOT metabolized | Compound NOT metabolized | Compound NOT metabolized | Compound metabolized | Compound NOT metabolized | Compound NOT metabolized | Compound metabolized | Compound NOT metabolized | Compound metabolized | Compound NOT metabolized | Compound metabolized | Compound metabolized | Compound metabolized | Compound NOT metabolized | Compound NOT metabolized | Compound metabolized | Compound NOT metabolized | Compound metabolized
3 | CCCCCNC(=N)N/N=C/c1c[nH]c2ccc(OC)cc12.O=C(O)/C=C\C(=O)O [TEGASEROD MALEATE] | Compound NOT metabolized | Compound NOT metabolized | Compound NOT metabolized | Compound NOT metabolized | Compound NOT metabolized | Compound NOT metabolized | Compound NOT metabolized | Compound NOT metabolized | Compound NOT metabolized | Compound NOT metabolized | Compound NOT metabolized | Compound NOT metabolized | Compound NOT metabolized | Compound NOT metabolized | Compound NOT metabolized | Compound NOT metabolized | Compound NOT metabolized | Compound NOT metabolized | Compound NOT metabolized | Compound NOT metabolized

Further lines, results first:

Row | Bacterial Biotransformation [1] | Bacterial Biotransformation [2] | Bacterial Biotransformation [3] | Bacterial Biotransformation [4] | Bacterial Biotransformation [5] | Bacterial Biotransformation [6] | Bacterial Biotransformation [7] | Bacterial Biotransformation [8] | Bacterial Biotransformation [9] | Bacterial Biotransformation [10] | Bacterial Biotransformation [11] | Bacterial Biotransformation [12] | Bacterial Biotransformation [13] | Bacterial Biotransformation [14] | Bacterial Biotransformation [15] | Bacterial Biotransformation [16] | Bacterial Biotransformation [17] | Bacterial Biotransformation [18] | Bacterial Biotransformation [19] | Bacterial Biotransformation [20] | SMILES
4 | Compound NOT metabolized | Compound NOT metabolized | Compound NOT metabolized | Compound NOT metabolized | Compound NOT metabolized | Compound NOT metabolized | Compound NOT metabolized | Compound NOT metabolized | Compound NOT metabolized | Compound NOT metabolized | Compound NOT metabolized | Compound NOT metabolized | Compound NOT metabolized | Compound NOT metabolized | Compound NOT metabolized | Compound NOT metabolized | Compound NOT metabolized | Compound NOT metabolized | Compound NOT metabolized | Compound NOT metabolized | CC(C)c1nc(N(C)S(C)(=O)=O)nc(-c2ccc(F)cc2)c1/C=C/[C@@H](O)C[C@@H](O)CC(=O)[O-].CC(C)c1nc(N(C)S(C)(=O)=O)nc(-c2ccc(F)cc2)c1/C=C/[C@@H](O)C[C@@H](O)CC(=O)[O-].[Ca+2] [ROSUVASTATIN CALCIUM]
5 | Compound NOT metabolized | Compound NOT metabolized | Compound NOT metabolized | Compound NOT metabolized | Compound NOT metabolized | Compound NOT metabolized | Compound NOT metabolized | Compound NOT metabolized | Compound NOT metabolized | Compound NOT metabolized | Compound NOT metabolized | Compound NOT metabolized | Compound NOT metabolized | Compound NOT metabolized | Compound NOT metabolized | Compound NOT metabolized | Compound NOT metabolized | Compound NOT metabolized | Compound NOT metabolized | Compound NOT metabolized | CCOc1ccccc1OCCN[C@H](C)Cc1ccc(OC)c(S(N)(=O)=O)c1.Cl [TAMSULOSIN HYDROCHLORIDE]
6 | Compound NOT metabolized | Compound NOT metabolized | Compound NOT metabolized | Compound NOT metabolized | Compound NOT metabolized | Compound NOT metabolized | Compound NOT metabolized | Compound NOT metabolized | Compound NOT metabolized | Compound NOT metabolized | Compound NOT metabolized | Compound NOT metabolized | Compound NOT metabolized | Compound NOT metabolized | Compound NOT metabolized | Compound NOT metabolized | Compound NOT metabolized | Compound NOT metabolized | Compound NOT metabolized | Compound NOT metabolized | COc1cc2nc(N3CCN(C(=O)C4CCCO4)CC3)nc(N)c2cc1OC (stereo not given) [TERAZOSIN]
7 | Compound NOT metabolized | Compound NOT metabolized | Compound NOT metabolized | Compound NOT metabolized | Compound NOT metabolized | Compound NOT metabolized | Compound NOT metabolized | Compound NOT metabolized | Compound NOT metabolized | Compound NOT metabolized | Compound NOT metabolized | Compound NOT metabolized | Compound NOT metabolized | Compound NOT metabolized | Compound NOT metabolized | Compound NOT metabolized | Compound NOT metabolized | Compound NOT metabolized | Compound NOT metabolized | Compound NOT metabolized | CN(C/C=C/C#CC(C)(C)C)Cc1cccc2ccccc12 [TERBINAFINE]
